This note sets out measurements from patent US20110045083A1, “USE LARCH WOOD FOR TREATING INFLAMMATION” (priority 2007, published 2011).

Some results are limits rather than exact numbers.

For the assay, the system named is 5-LOX mediated LT biosynthesis. The experiment in a line: LT biosynthesis inhibition assay in activated neutrophile granulocytes, LTB4 EIA. Type of assay: cell-based, human. Particulars: for IC50 / inhibition at 50 µM: Homo sapiens; for inhibition at 50 µM: screening concentration 50 μM. The protocol:
1.) LT biosynthesis inhibition assay
The assay was performed as described in [Michael Adams, Olaf Kunert, Ernst Haslinger, Rudolf Bauer: Inhibition of Leukotriene Biosynthesis by Quinolone Alkaloids from the Fruits of Evodia Rutaecarpa; Planta med. 2004 (70): 904-908] with some modifications.
Principle: Activated neutrophile granulocytes with 5-LOX activity are incubated with a defined concentration of test sample and arachidonic acid. After stopping the enzymatic reaction by addition of formic acid and centrifugation to remove cellular fragments, the produced LTB4 is quantified in the supernatant by means of an LTB4 EIA kit.
Isolation of human neutrophile granulocytes: 30 ml of venous human blood from healthy voluntary donors are collected with a Vacutainer™ (BD, Plymouth, UK) system containing a 0.219 M pre-analytical citric acid solution. The blood is immediately transferred to a falcon tube containing 20 ml of sedimentation solution (1% NaCl, 6% dextran T-500) and left to separate for 60 min at 4° C. While most of the dense erythrocytes sink into the dextran layer, the lighter blood fractions remain in the upper layer which is then removed and centrifuged at 1600 rpm (4° C., 10 min) to concentrate the leukocytes. The plasma supernatant is discarded, the pellet is resuspended in 10 ml of a wash buffer (10% CaCl2.2H2O p.a.; 0.1% anhydrous d-glucose; 0.2% MgCl2.6H2O; 0.04% KCl; 1.75% TRIS p.a.; with the pH adjusted to 7.6 with 1N HCl). After centrifugation at 1400 rpm (4° C., 10 min) and removal of the supernatant the resulting pellet is resuspended in 10 ml of a hypotonic lysis buffer (0.17% NH4Cl; 0.2% TRIS; pH 7.2) and gently shaken for 5 min at room temperature to destroy remaining erythrocytes. The suspension is submitted to another centrifugation at 1400 rpm (4° C., 5 min). The pellet is resuspended in 10 ml of wash buffer and then centrifuged at 1400 rpm (4° C., 15 min). The resulting pellet which now mainly contains neutrophile granulocytes is resuspended in 2 ml of TRIS buffer (1.75% TRIS p.a., 0.9% NaCl, pH 7.4), tested for vitality, quantified and then diluted to a cell concentration of 4500 cells/ml with TRIS buffer.
Cell vitality test: 50 μl of cell suspension and 10 μl of trypan blue solution (0.4%) (Sigma Chemical Co. Steinheim, Germany) are mixed on a glass object carrier and examined with a light microscope at 1000 fold magnification. Dead cells appear larger and darker due to absorption of trypan blue. The vitality of the cells must be >95%.
Determination of cell concentration: 10 μl of granulocyte cell suspension are dyed using 990 μl aqueous TURKS solution (Merck) and quantified in a “Neubauer” chamber (Assistent, Germany).
Sample preparation: samples are dissolved in an appropriate amount of ethanol p.a. to be added to the test mixture resulting in screening concentrations of 50 μM for pure compounds and 20 μg/ml for crude. The commercially available 5-LOX inhibitor zileuton (Sequoia Research Products Ltd., UK) is used as a positive control at a concentration of 10 μM representing its IC50 in this test system.
Incubation procedure: The incubation mixture in a 96-well flat bottom microtitre plate (Bibby Sterilin, Staffordshire, UK) consists of 265 μl leukocyte suspension, with 75.5 μM CaCl2, 0.152 μM […] (ETYA) as an inhibitor of the 12-LOX pathway, 0.642 μM Ca ionophore A23187 and 4.43 μM arachidonic acid, the substrate of the 5-LOX pathway, along with 5 μl of each test solution or 5 μl of EtOH p.a. in control wells. After incubation for 10 min at 37° C. in darkness, the reaction is stopped by addition of 20 μl of 10% formic acid. The microtitre plate is centrifuged for 15 min at 1400 rpm to separate free LTB4 from cellular particles before the supernatant is diluted 40 fold in EIA buffer and applied to a competitive LTB4 EIA kit (Assay Designs Inc.).
LTB4 EIA: The plate is incubated for 2 hours at room temperature on an orbital shaker. […]

For `C=CC(C)(O)CCC1C(=C)CC(O)C2C(C)(C)CCCC12C` (stereo not shown) [Larixol], the “IC50 LT assay” value is “inactive”, the IC50 is above 125 µM and the inhibition at 50 µM was 32.7 ± 5%.

`C=C[C@@]1(C)CC[C@H]2C(=CC[C@@H]3[C@]2(C)CCC[C@@]3(C)C(=O)O)C1` [Isopimaric acid] displayed an IC50 of 10.2 µM and an inhibition at 50 µM of 98.1 ± 0.5%.

`CC(C)c1ccc2c(c1)CCC1C(C)(CO)CCCC21C` (stereo not shown) [Dehydroabietinol] showed an IC50 of 10.9 µM and an inhibition at 50 µM of 94.5 ± 1.4%.

`CC(C)C1=CC2=C(CC1)C1(C)CCCC(C)(C(=O)O)C1CC2` (stereo not shown) [Palustric acid] had an IC50 of 17.8 µM and an inhibition at 50 µM of 66.7 ± 3.1%.

In the case of `CC(C)c1ccc2c(c1)CCC1C(C)(C(=O)O)CCCC21C` (stereo not shown) [Dehydroabietic acid], half-maximal inhibition (IC50) required 44.6 µM and the inhibition at 50 µM was determined as 47.9 ± 8.4%.

With `C=CC(C)(O)CCC1C(=C)CC(OC(C)=O)C2C(C)(C)CCCC12C` (stereo not shown) [Larixyl acetate], half-maximal inhibition (IC50) was put at 10.4 µM and testing at 50 µM gave an inhibition of 98.1 ± 0.1%.
